According to ChEMBL document CHEMBL2021885, “Triphenylbutanamines: kinesin spindle protein inhibitors with in vivo antitumor activity” (J Med Chem, 2012):
The source made the active and inactive calls. The calls are words filed in the database; no cut-off is given here.

Tests used:
[1] = target: T1, Kinesin-like protein KIF7 (Homo sapiens) (UniProt Q2M1P5); test: Inhibition of Kif7 ATPase activity
T1 sequence (whole entry): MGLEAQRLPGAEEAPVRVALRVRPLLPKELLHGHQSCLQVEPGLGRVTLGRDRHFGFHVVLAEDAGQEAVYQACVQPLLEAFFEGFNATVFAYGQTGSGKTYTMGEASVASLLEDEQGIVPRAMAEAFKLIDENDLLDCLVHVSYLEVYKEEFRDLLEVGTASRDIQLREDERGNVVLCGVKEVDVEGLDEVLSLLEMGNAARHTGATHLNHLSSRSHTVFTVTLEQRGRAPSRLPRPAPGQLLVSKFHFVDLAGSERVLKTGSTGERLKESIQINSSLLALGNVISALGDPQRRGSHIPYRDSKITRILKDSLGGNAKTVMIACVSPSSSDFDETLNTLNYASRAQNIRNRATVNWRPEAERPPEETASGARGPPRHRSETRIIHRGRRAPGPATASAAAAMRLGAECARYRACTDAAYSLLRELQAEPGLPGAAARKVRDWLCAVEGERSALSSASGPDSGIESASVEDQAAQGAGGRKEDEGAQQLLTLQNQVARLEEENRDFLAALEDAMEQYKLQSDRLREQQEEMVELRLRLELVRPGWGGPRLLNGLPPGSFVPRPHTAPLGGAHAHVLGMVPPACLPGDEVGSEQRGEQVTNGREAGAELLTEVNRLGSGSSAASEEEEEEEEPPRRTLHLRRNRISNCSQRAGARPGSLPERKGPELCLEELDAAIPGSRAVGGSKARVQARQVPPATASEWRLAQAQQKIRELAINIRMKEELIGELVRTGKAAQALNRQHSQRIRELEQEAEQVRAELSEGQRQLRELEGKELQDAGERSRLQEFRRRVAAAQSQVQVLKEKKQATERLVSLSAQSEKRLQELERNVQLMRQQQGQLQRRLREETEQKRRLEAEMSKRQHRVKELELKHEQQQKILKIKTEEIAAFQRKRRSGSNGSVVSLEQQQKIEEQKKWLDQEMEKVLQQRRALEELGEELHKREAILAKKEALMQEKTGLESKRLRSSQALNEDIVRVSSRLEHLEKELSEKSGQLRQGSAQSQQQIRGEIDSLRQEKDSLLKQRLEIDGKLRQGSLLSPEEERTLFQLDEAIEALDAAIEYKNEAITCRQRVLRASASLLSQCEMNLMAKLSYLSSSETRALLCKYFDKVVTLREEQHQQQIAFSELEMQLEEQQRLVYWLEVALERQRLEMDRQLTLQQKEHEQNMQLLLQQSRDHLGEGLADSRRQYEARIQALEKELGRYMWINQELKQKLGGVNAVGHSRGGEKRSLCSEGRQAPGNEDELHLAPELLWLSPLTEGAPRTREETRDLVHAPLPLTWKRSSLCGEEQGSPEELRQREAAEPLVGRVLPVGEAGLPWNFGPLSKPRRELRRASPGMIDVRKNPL

[2] = target: Kinesin-like protein KIF20B (Homo sapiens) (UniProt Q96Q89); test: Inhibition of MPP1 ATPase activity
Chain of Kinesin-like protein KIF20B (Homo sapiens) (Q96Q89 whole entry): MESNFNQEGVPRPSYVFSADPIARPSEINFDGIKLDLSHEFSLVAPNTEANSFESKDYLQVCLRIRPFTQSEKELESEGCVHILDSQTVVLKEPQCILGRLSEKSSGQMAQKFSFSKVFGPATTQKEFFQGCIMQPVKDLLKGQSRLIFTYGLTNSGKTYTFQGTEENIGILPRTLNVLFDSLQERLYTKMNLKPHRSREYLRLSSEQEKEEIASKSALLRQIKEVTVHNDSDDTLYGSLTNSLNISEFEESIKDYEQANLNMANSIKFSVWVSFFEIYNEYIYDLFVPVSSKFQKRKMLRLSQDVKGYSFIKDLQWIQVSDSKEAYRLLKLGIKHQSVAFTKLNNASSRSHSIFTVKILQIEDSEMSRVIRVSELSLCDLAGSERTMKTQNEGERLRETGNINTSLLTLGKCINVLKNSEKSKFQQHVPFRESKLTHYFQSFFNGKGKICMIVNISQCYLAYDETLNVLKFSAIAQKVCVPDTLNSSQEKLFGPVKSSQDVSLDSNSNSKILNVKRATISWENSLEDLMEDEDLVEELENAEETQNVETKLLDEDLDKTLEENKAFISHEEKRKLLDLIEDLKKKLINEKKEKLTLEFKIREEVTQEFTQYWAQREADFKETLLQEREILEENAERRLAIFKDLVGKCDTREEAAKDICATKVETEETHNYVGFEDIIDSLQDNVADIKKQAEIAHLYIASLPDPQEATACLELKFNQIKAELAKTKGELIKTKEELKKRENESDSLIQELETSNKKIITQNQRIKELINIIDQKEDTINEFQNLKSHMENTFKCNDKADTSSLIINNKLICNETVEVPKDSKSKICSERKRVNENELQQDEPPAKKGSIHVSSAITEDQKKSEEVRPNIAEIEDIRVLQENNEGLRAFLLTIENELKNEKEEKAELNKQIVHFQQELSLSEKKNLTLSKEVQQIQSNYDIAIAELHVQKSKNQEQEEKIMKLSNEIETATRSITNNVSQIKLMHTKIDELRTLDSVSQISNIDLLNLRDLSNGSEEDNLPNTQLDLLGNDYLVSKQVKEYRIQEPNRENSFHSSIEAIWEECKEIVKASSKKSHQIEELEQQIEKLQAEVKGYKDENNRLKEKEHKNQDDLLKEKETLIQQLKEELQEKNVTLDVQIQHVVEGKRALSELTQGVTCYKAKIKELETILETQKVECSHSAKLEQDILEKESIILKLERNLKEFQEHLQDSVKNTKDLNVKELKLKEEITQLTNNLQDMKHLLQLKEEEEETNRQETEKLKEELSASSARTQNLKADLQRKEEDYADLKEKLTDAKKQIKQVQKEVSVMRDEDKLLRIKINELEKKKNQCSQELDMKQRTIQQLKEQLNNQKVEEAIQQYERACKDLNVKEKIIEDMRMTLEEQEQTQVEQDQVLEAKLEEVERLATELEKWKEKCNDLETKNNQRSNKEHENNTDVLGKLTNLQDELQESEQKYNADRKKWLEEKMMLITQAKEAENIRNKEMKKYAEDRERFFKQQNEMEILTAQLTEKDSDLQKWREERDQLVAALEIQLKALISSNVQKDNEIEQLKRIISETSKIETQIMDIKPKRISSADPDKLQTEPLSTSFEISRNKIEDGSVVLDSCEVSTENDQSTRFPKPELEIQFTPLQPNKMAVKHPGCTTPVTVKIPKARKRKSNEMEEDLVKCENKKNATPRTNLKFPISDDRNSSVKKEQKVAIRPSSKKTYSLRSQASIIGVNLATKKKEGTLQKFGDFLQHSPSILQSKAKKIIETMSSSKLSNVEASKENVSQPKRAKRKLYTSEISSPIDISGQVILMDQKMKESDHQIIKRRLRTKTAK

[3] = Antiproliferative activity against human hTERT-HME1 cells after 72 hrs by Alamar blue assay; format: cell-based
[4] = target: T2, Kinesin-like protein KIF20A (Homo sapiens) (UniProt O95235); test: Inhibition of MT-stimulated MKLP2 ATPase activity
T2 sequence (whole entry): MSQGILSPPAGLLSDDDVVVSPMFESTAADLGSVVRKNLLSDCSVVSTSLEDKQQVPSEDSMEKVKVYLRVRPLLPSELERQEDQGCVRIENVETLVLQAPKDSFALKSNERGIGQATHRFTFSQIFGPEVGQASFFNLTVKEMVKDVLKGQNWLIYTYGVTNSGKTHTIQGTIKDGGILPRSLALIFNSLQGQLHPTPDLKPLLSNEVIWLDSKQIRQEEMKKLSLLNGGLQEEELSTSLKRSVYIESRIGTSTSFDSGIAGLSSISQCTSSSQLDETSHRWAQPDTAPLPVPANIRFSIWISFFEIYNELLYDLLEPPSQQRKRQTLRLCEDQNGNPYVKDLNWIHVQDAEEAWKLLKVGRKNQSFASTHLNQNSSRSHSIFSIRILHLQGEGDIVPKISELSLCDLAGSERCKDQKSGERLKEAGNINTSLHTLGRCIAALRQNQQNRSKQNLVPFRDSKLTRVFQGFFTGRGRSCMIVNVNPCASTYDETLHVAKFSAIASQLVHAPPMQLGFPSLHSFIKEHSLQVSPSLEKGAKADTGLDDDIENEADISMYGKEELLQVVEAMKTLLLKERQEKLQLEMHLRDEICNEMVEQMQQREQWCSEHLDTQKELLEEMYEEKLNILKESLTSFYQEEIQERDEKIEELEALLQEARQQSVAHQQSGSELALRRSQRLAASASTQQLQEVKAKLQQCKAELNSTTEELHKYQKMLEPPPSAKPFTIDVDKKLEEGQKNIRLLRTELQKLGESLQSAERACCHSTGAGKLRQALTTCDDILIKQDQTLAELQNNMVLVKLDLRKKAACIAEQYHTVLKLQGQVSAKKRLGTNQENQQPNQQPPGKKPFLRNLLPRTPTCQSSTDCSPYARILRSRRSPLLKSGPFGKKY

[5] = target: Centromere-associated protein E (Homo sapiens) (UniProt Q02224); test: Inhibition of CENP-E ATPase activity
Chain of Centromere-associated protein E (Homo sapiens) (Q02224 whole entry): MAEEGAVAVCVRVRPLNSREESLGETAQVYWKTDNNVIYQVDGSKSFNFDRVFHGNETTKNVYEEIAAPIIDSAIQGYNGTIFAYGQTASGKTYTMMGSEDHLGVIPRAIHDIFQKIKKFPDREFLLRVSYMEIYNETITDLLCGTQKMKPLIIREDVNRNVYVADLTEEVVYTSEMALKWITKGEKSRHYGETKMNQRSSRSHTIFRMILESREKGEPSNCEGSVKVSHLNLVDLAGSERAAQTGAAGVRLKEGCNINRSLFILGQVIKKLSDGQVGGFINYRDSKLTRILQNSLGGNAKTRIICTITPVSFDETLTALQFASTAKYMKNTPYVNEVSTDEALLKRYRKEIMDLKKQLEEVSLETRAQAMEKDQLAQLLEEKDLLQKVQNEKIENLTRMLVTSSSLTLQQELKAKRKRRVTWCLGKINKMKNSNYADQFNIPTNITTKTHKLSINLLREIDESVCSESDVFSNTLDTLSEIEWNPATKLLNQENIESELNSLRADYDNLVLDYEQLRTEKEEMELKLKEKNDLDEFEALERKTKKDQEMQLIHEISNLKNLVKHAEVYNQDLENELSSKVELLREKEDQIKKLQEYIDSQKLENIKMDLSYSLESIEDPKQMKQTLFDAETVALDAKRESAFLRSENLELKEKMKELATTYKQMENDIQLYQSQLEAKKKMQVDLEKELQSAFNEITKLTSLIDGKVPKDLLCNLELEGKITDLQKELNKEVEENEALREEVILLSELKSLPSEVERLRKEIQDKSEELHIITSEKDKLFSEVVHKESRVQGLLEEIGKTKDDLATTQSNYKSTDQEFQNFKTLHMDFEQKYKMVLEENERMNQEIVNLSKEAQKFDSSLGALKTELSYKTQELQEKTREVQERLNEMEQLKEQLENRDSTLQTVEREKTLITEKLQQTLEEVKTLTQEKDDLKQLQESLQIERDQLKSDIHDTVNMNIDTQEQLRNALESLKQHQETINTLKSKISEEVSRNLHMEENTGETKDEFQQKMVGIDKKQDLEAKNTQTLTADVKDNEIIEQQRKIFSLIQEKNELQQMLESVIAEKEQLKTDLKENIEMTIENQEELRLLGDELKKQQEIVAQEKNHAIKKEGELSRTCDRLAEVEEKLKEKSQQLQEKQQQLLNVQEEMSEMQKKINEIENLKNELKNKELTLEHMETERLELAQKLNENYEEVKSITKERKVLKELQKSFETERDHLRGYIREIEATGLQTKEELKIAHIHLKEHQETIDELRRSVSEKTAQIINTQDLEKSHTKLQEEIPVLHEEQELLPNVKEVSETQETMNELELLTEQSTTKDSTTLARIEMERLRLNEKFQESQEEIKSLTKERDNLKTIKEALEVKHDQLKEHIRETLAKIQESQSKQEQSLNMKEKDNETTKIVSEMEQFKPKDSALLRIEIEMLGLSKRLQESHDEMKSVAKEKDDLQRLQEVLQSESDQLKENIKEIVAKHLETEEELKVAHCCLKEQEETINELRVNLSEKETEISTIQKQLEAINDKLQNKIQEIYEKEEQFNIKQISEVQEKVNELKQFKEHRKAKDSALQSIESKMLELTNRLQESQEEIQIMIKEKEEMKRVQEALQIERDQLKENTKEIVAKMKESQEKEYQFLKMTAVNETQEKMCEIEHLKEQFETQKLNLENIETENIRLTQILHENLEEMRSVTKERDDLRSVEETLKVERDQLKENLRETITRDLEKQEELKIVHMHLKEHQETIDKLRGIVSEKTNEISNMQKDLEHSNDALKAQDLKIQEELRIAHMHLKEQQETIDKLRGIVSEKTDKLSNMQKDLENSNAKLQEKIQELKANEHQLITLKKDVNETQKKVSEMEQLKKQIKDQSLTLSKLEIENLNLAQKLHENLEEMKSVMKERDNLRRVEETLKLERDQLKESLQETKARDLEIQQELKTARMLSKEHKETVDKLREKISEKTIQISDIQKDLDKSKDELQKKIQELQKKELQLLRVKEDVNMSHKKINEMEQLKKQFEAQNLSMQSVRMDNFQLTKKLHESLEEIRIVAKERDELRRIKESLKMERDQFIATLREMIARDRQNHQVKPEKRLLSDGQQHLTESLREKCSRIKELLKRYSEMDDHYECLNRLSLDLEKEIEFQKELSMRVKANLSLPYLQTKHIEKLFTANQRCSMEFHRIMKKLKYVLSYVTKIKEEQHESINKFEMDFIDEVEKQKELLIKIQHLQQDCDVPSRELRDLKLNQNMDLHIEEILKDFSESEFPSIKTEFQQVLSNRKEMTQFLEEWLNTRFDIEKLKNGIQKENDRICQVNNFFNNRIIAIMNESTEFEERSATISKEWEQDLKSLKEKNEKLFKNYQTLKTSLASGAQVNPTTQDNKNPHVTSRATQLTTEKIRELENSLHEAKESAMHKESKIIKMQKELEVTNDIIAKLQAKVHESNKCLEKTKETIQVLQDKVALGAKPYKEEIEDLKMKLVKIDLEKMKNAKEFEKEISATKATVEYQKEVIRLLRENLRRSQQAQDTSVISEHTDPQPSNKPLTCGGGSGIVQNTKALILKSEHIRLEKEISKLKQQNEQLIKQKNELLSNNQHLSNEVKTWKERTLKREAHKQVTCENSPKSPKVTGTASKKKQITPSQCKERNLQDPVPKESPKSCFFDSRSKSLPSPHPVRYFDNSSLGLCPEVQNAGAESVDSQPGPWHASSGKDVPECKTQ

[6] = target: T1, Kinesin-like protein KIF7 (Homo sapiens); test: Inhibition of MT-stimulated Kif7 ATPase activity
[7] = Lipophilicity, Log P of the compound; format: physicochemical; details: octanol/water; read-out: logP
[8] = target: Centromere-associated protein E (Homo sapiens) (UniProt Q02224); test: Inhibition of MT-stimulated CENP-E ATPase activity
[9] = Antitumor activity against human LXFS 538 cells xenografted in nu/nu nude Charles river mouse assessed as inhibition of tumor growth dosed at 20 mg/kg on days 0, 2 and 4 and 15 mg/kg on days 17, 19, 24 measured after 10 days; format: functional
[10] = target: Kinesin-like protein KIF20B (Homo sapiens) (UniProt Q96Q89); test: Inhibition of MT-stimulated MPP1 ATPase activity

SMILES: Cc1cccc(C(CCC(N)C(=O)O)(c2ccccc2)c2ccccc2)c1 (racemic)
- inhibition [1]: inactive
- inhibition [2]: inactive
- GI50 at 72 h [3]: 38 nM
- inhibition [4]: inactive
- inhibition [5]: inactive
- inhibition [6]: inactive
- logP [7]: 2.45
- inhibition [8]: inactive
- T/C [9]: 26.3%
- inhibition [10]: inactive
